melting point: 137 to 139 °C
Structure (SMILES): O=C(N[C@H](CN1CCCC1)c1ccccc1)C1(c2cccc(-c3nnn[nH]3)c2)CC1 (stereo in doubt)

From patent publication US9303027B2 (dated 2016)
